Two compounds from patent US11904008B2, “Preparation of live vaccines” (priority 2012, dated 2024) can be followed below.

≈ marks a conversion by molar mass, not a printed value.

Holding throughout (assay): MIC values of wild type strains
What all share (assay type): cell-based

Assay [1] has as its system Salmonella enterica subsp. enterica serovar Infantis. Particulars: wild type strain Salmonella Infantis; unit assumed.
For assay [2], the system named is Salmonella enterica subsp. enterica serovar Hadar. Particulars: wild type strain Salmonella Hadar; unit assumed.
The test system of assay [3] is Campylobacter coli WS I. Particulars: wild type strain Campylobacter coli WS I; unit assumed.
Assay [4] deals with Salmonella enterica subsp. enterica serovar Virchow. The note with it: wild type strain Salmonella Virchow; unit assumed.
Assay [5] relates to Campylobacter jejuni WS I. The note with it: wild type strain Campylobacter jejuni WS I; unit assumed.
For assay [6], the system named is Salmonella paratyphi B (var. L-tartrate+). Particulars: wild type strain Salmonella paratyphi B (var. L-tartrate+); unit assumed.
The subject of assay [7] is Campylobacter coli WS II. Particulars: wild type strain Campylobacter coli WS II; unit assumed.
In assay [8] the test system is Campylobacter jejuni WS II. Particulars: wild type strain Campylobacter jejuni WS II; unit assumed.

A word on the MIC: it is the lowest concentration found to suppress growth.

Consider `[H]/N=C(/N)N[C@H]1[C@H](O)[C@@H](O)[C@H](O[C@@H]2O[C@@H](C)[C@](O)(C=O)[C@H]2O[C@@H]2O[C@@H](CO)[C@H](O)[C@@H](O)[C@@H]2NC)[C@@H](N/C(N)=N\[H])[C@@H]1O` [Streptomycin], for which the MIC in assay [1] came to 12.5 µg/mL (≈ 21.5 µM); in assay [2] it was 25 µg/mL (≈ 43 µM); in assay [3] it was 1 µg/mL (≈ 1.72 µM); in assay [4], 12.5 µg/mL (≈ 21.5 µM); in assay [5], 2 µg/mL (≈ 3.44 µM); in assay [6], 30 µg/mL (≈ 51.6 µM). The MIC in assay [7] turned out to be 1 µg/mL (≈ 1.72 µM); in assay [8] it was 2 µg/mL (≈ 3.44 µM).

For `C[C@@H]1O[C@@H]1P(=O)(O)O` [fosfomycin], the MIC in assay [3], in assay [5], in assay [7] and in assay [8] was 25 µg/mL (≈ 181 µM) each time.
